Measurements taken from ChEMBL document CHEMBL1201862, “PubChem BioAssay data set” (2004).
The source made the active and inactive calls.

How the values were obtained:
[1] = target: T1, Kappa-type opioid receptor (Homo sapiens, UniProt P41145); assay: SAR analysis of small molecule agonists of the kappa opioid receptor via a luminescent beta-arrestin assay - Set 2. [Related pubchem assays (depositor defined):AID1777, AID1785, AID1786, AID1966, AID2133, AID2136, AID2284, AID449737]; assay type: functional
[2] = target: T1, Kappa-type opioid receptor; assay type: functional
[3] = target: T1, Kappa-type opioid receptor; assay type: functional; remark: listed apart in the source
Beta-galactosidase = Beta-galactosidase (Escherichia coli, UniProt Q8VNN2); assay type: functional
Cytochrome P450 2C9 = Cytochrome P450 2C9 (Homo sapiens, UniProt P11712)
[4] = target: T2, Intestinal-type alkaline phosphatase (Homo sapiens, UniProt P09923); assay: Dose Response confirmation of uHTS hits from a small molecule inhibitors of human intestinal alkaline phosphatase via a luminescent assay. [Related pubchem assays (depositor defined):AID2544, AID2574]; assay type: functional
Integrin alpha-L = Integrin alpha-L (Mus musculus, UniProt P24063); assay: modulators of CD8 T cell-vesicle binding, dose response, powder samples, mouse 2C CD8+ cells (AID 504565); assay type: functional
T-cell = assay: inhibitors of CD8+ T cell–vesicle binding, dose response, mouse 2C CD8+ T cells, flow cytometry (AID 485284); assay type: functional
[5] = target: DNA (cytosine-5)-methyltransferase 1 (Homo sapiens, UniProt P26358); assay: DNMT1 methyltransferase inhibitors, confirmation, biochemical, fluorescent molecular beacon (AID 602386); assay type: functional
[6] = target: Induced myeloid leukemia cell differentiation protein Mcl-1 (Homo sapiens, UniProt Q07820); assay: MCL1-BIM BH3 interaction inhibitors, dose response, biochemical, fluorescence polarization, BIM-BH3 peptide, 1536-well (AID 2217)
[7] = target: T2, Intestinal-type alkaline phosphatase; assay: activation of human intestinal alkaline phosphatase – biochemical, dose response (AID 488873); assay type: functional
[8] = target: T3, Alkaline phosphatase, tissue-nonspecific isozyme (Homo sapiens, UniProt P05186); assay: TNAP enzyme inhibition by screening hits, dose response, selectivity assay for mouse IAP inhibitor project, biochemical, human TNAP, uHTS hits (AID 488906); assay type: functional
T3 sequence (P05186 whole entry): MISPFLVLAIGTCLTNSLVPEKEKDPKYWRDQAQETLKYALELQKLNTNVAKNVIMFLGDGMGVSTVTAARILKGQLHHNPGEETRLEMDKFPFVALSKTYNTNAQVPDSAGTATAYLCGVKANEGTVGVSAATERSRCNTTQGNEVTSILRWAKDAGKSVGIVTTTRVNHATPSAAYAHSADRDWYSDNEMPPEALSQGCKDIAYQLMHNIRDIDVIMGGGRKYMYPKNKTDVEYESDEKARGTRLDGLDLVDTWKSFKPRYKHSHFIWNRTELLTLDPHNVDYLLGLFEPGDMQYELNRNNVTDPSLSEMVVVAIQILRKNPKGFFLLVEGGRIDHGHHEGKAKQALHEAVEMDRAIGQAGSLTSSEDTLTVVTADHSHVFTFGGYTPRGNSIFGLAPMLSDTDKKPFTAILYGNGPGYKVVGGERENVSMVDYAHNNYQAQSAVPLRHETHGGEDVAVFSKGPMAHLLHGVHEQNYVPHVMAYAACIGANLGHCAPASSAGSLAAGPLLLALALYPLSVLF

[9] = target: T4, Small ubiquitin-related modifier 1 (Homo sapiens, UniProt P63165); assay: inhibitors of SUMO1 peptide binding, dose response, biochemical, fluorescence polarization, uHTS hits (AID 624382); assay type: functional; conditions: read-out: IC50_Mean
[10] = target: T4, Small ubiquitin-related modifier 1; assay: inhibitors of SUMO1 partner interactions, dose response, biochemical, FRET (AID 624383); assay type: functional; conditions: read-out: IC50_Mean
[11] = target: Intestinal-type alkaline phosphatase (Mus musculus, UniProt P24822); assay: PubChem AID 488785; assay type: functional
Bcl-2-like protein 1 = Bcl-2-like protein 1 (Homo sapiens, UniProt Q07817); assay: BCL-XL inhibitors, dose response, selectivity assay for MCL1 inhibitor project, biochemical, fluorescence polarization, 1536-well (AID 2218)
[12] = target: T5, Short transient receptor potential channel 4 (Mus musculus, UniProt Q9QUQ5); assay: TRPC4 positive allosteric modulators, dose response, cell-based, HEK293 TRPC4/mu-opioid, Fluo-4 calcium, EC20 DAMGO (AID 434941); assay type: functional
T5 sequence (Q9QUQ5 whole entry): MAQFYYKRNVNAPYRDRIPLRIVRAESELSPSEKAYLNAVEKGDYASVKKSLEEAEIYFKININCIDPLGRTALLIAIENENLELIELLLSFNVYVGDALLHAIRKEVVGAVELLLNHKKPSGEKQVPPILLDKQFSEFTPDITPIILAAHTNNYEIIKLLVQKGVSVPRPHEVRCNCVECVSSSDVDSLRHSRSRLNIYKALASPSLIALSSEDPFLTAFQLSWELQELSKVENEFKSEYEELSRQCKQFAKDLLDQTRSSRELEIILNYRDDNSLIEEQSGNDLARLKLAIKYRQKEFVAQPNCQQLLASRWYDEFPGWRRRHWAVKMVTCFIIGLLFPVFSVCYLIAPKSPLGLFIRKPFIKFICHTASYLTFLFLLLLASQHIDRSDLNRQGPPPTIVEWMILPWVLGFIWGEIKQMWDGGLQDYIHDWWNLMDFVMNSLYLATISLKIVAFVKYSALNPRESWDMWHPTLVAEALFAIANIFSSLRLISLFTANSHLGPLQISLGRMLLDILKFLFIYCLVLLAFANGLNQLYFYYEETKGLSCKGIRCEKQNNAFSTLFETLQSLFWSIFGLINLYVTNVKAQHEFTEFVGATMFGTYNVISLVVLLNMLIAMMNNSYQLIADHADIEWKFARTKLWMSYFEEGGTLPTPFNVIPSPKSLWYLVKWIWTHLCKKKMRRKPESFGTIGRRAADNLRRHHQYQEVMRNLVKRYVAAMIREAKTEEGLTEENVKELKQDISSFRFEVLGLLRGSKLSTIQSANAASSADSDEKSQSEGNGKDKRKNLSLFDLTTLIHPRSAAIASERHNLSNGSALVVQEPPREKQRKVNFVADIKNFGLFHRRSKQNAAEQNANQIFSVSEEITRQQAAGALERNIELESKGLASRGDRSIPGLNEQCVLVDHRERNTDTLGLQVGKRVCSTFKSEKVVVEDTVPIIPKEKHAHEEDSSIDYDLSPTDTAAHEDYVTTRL

[13] = inhibitors of SNCA 5'UTR-driven reporter translation, confirmation, H4 neuroglioma cells, luminescence (AID 1988); assay type: functional, cell-based
[14] = target: Serine/threonine-protein phosphatase (Candida dubliniensis (strain CD36 / CBS 7987 / NCPF 3949 / NRRLY-17841) (Yeast), UniProt B9W6M3); assay: calcineurin pathway inhibitors in yeast reporter, dose response, S. cerevisiae, CDRE-lacZ, luminescence, secondary (AID 2388); assay type: functional, cell-based;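 also: yeast reporter cells carrying a calcineurin-responsive lacZ construct stimulated with calcium chloride; luminescent beta-galactosidase reporter signal in whole cells rather than isolated phosphatase activity; potency for inhibition where a drop in reporter signal means calcineurin blockade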
[15] = Vero E6 cell cytotoxicity, dose response, cytotoxicity control for non-replicating M. tuberculosis project, secondary assay (AID 492998); assay type: functional, VeroE6; conditions: Vero C1008
Cytochrome P450 3A4 = Cytochrome P450 3A4 (Homo sapiens, UniProt P08684);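 also: CYP3A4 tested as one member of a cytochrome P450 panel screen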
[16] = Luminescence Cell-Based Dose Response HTS to Identify Inhibitors of 5'UTR Stem-Loop Driven Prion Protein mRNA Translation in H4 Neuroglioblastoma Cells. [Related pubchem assays: 1827 (Project Summary), 1813 (Primary HTS)]; assay type: functional
[17] = THP-1 cell cytotoxicity, dose response, cytotoxicity control for non-replicating M. tuberculosis project (AID 489025); assay type: functional
[18] = target: T6, Heat shock factor protein 1 (Mus musculus, UniProt P38532); assay: inhibition of MG132-induced HSE-luciferase signal, confirmation, cell-based, NIH3T3, luminescence, dose retest (AID 2382); assay type: functional;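 also: NIH3T3 fibroblasts with HSF1-driven luciferase reporter stressed by proteasome inhibitor MG132; luminescence from HSF1-driven luciferase expression after 8 hours of MG132 stress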
T6 sequence (P38532 whole entry): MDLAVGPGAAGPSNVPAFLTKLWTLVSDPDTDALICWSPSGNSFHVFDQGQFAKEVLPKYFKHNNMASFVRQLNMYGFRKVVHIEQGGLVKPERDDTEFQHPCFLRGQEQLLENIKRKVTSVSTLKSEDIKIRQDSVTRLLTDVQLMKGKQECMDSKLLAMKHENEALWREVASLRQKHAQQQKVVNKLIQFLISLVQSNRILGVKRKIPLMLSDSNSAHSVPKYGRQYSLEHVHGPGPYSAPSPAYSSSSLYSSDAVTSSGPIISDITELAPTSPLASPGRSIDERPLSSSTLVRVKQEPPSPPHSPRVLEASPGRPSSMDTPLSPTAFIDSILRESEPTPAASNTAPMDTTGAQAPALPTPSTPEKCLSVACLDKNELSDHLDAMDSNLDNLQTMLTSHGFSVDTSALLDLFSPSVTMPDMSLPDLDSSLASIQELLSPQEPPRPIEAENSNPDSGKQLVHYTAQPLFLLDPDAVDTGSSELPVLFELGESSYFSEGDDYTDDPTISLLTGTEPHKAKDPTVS

[19] = inhibitors of firefly luciferase expression or activity, dose response, H4 neuroglioma cells, luminescence (AID 1990); assay type: functional, cell-based
[20] = target: NACHT, LRR and PYD domains-containing protein 3 (Homo sapiens, UniProt Q96P20); assay: NALP3 inhibitors in yeast, dose response, luminescent (AID 488799); assay type: functional
[21] = HepG2 cell cytotoxicity, dose response, cytotoxicity control for non-replicating M. tuberculosis project (AID 489018); assay type: functional; conditions: Mycobacterium tuberculosis
[22] = C. albicans growth with fluconazole, confirmation, fluorescence, retest (AID 2467); assay type: functional, cell-based
[23] = NIH-3T3 fibroblast cytotoxicity, dose response, cytotoxicity control, cell-based, fluorescence, Alamar Blue, secondary assay (AID 2327); assay type: functional;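 also: NIH-3T3 mouse fibroblasts cultured with fluconazole at 8 µg/mL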
cells = assay type: functional
[24] = target: ATP-dependent molecular chaperone HSP82 (Candida albicans (strain WO-1) (Yeast), UniProt C4YTQ8); assay: loss of DOC-induced GRE-beta-galactosidase reporter signal, dose response, Hsp90 inhibitor project, S. cerevisiae, luminescence (AID 2400); assay type: functional, cell-based;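 also: beta-galactosidase luminescence from glucocorticoid response element reporter as proxy for Hsp90 function; inhibitor potency where signal loss means Hsp90 inhibition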
[25] = target: Eukaryotic translation initiation factor 4H (Homo sapiens, UniProt Q15056); assay: eIF4H inhibition in translation initiation, SAR follow-up (AID 435011); assay type: functional
[26] = target: Polyadenylate-binding protein 1 (Homo sapiens, UniProt P11940); assay: PABP inhibition in translation initiation, SAR follow-up (AID 435018); assay type: functional
[27] = target: DNA dC->dU-editing enzyme APOBEC-3G (Homo sapiens, UniProt Q9HC16); assay: Dose Response confirmation of small molecule APOBEC3G DNA Deaminase Inhibitors via a fluorescence-based single-stranded DNA deaminase assay. [Related pubchem assays (depositor defined):AID493012, AID493028]; assay type: functional
[28] = target: DNA dC->dU-editing enzyme APOBEC-3A (Homo sapiens, UniProt P31941); assay: APOBEC3A DNA deaminase inhibitors, dose response, biochemical (AID 504722); assay type: functional
[29] = target: T7, Tyrosine-protein phosphatase non-receptor type 7 (Homo sapiens, UniProt P35236); assay: redox-dependent HePTP inhibition, mechanism study, biochemical, fluorescence (AID 2068); assay type: functional
T7 sequence (P35236 whole entry): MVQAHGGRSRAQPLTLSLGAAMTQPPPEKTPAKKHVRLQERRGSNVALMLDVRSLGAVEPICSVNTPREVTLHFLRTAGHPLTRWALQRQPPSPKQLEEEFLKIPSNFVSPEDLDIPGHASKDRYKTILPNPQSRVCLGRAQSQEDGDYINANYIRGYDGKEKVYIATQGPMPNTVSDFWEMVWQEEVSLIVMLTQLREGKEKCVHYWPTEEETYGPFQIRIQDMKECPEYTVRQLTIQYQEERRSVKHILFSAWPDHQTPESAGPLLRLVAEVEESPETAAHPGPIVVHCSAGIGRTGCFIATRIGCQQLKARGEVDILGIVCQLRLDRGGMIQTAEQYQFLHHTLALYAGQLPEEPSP

T1 sequence (P41145 whole entry): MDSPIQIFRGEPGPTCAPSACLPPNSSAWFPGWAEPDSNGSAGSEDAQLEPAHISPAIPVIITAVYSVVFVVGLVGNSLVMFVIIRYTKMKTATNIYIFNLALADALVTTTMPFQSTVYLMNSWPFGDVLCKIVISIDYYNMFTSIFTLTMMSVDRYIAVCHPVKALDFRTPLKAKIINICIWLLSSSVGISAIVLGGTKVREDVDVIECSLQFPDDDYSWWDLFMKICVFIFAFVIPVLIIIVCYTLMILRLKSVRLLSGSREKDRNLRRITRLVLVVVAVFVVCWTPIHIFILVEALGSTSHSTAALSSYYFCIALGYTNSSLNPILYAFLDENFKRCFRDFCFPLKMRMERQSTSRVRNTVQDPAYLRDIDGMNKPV
T4 sequence (P63165 whole entry): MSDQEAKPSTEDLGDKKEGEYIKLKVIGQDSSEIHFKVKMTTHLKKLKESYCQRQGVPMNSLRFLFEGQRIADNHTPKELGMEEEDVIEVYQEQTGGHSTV
T2 sequence (P09923 whole entry): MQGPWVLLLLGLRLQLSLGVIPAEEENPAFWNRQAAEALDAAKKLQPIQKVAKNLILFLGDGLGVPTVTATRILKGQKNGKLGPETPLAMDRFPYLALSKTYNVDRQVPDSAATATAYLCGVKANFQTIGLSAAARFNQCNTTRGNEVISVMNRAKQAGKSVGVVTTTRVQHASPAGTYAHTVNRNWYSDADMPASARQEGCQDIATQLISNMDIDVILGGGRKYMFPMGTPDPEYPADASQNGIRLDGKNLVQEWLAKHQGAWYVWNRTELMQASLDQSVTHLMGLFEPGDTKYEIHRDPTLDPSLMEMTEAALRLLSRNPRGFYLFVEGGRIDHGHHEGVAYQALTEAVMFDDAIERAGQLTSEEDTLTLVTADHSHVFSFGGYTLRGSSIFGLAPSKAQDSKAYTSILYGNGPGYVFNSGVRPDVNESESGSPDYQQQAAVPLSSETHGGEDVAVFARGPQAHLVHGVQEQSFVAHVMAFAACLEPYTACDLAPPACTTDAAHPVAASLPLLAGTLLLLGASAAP
Chain of Bcl-2-like protein 1 (Q07817 whole entry): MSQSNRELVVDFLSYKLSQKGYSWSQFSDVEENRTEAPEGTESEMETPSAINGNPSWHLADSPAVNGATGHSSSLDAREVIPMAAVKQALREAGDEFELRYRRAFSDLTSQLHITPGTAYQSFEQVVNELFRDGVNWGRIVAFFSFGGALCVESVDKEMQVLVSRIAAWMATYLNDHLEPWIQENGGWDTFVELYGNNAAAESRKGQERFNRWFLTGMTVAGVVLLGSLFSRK
Chain of NACHT, LRR and PYD domains-containing protein 3 (Q96P20 whole entry, the tested form may be a part): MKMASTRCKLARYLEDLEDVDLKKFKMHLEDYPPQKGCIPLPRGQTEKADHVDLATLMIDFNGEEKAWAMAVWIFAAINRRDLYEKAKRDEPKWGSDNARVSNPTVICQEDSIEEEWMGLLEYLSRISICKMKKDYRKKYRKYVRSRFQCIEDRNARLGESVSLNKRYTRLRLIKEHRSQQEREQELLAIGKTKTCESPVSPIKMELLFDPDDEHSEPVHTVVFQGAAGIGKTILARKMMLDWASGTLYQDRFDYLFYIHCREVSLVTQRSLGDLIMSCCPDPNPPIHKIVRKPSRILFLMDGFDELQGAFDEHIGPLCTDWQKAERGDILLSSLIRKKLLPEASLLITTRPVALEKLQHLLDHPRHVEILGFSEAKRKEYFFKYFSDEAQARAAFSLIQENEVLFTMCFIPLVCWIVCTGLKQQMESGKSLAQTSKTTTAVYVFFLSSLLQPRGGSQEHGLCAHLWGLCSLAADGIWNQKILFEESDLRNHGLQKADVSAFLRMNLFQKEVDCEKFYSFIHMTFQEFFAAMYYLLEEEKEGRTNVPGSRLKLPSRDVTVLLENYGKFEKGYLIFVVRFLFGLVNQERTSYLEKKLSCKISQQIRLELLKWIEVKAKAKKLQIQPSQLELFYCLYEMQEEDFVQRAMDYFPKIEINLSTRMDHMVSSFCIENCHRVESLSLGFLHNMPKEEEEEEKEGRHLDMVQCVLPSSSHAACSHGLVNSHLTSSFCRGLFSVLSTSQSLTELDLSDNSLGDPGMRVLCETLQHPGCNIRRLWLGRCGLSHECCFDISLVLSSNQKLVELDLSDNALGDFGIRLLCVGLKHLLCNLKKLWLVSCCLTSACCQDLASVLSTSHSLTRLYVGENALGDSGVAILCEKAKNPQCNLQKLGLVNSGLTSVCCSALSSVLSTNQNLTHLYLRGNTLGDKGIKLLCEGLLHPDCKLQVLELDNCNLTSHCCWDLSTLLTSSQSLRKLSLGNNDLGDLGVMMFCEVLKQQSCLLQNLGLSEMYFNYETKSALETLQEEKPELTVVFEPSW
Chain of Intestinal-type alkaline phosphatase (Mus musculus, UniProt P24822) (P24822 whole entry): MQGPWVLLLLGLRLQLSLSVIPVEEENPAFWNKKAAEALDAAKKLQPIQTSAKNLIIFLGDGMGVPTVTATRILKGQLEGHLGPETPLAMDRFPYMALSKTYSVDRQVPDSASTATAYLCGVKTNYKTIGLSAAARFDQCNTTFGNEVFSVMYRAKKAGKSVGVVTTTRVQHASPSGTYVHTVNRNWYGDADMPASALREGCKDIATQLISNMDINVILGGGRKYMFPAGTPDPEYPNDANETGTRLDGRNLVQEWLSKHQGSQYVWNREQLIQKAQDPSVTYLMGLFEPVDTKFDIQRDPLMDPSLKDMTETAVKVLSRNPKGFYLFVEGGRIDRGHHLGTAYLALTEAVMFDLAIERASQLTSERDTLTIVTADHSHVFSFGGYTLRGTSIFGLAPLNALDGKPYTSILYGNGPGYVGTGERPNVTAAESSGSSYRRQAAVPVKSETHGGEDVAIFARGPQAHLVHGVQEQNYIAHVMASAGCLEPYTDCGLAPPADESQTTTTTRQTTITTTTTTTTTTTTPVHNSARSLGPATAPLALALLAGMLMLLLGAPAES
Chain of Serine/threonine-protein phosphatase (B9W6M3 whole entry): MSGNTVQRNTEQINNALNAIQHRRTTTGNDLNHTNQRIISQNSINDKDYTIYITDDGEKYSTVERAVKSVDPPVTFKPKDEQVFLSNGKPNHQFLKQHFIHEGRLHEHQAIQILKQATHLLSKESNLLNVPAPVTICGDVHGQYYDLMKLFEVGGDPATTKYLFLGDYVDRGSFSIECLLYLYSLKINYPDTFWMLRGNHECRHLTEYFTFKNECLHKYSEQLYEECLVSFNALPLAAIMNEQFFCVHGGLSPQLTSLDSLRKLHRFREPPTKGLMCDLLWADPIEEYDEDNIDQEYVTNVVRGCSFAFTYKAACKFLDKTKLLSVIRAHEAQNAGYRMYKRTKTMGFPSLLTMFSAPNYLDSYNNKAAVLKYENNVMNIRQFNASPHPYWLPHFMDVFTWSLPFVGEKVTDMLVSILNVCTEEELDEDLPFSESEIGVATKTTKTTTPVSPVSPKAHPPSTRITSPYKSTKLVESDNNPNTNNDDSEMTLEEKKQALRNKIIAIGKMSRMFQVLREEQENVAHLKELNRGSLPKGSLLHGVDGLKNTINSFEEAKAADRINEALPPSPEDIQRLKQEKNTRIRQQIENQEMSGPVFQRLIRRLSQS
Chain of DNA dC->dU-editing enzyme APOBEC-3A (P31941 whole entry): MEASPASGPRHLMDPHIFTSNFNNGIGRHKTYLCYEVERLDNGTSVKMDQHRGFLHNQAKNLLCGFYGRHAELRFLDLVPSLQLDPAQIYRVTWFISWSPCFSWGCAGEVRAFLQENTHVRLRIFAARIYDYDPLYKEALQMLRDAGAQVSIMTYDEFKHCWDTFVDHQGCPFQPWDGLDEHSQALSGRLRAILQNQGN
Chain of ATP-dependent molecular chaperone HSP82 (C4YTQ8 whole entry): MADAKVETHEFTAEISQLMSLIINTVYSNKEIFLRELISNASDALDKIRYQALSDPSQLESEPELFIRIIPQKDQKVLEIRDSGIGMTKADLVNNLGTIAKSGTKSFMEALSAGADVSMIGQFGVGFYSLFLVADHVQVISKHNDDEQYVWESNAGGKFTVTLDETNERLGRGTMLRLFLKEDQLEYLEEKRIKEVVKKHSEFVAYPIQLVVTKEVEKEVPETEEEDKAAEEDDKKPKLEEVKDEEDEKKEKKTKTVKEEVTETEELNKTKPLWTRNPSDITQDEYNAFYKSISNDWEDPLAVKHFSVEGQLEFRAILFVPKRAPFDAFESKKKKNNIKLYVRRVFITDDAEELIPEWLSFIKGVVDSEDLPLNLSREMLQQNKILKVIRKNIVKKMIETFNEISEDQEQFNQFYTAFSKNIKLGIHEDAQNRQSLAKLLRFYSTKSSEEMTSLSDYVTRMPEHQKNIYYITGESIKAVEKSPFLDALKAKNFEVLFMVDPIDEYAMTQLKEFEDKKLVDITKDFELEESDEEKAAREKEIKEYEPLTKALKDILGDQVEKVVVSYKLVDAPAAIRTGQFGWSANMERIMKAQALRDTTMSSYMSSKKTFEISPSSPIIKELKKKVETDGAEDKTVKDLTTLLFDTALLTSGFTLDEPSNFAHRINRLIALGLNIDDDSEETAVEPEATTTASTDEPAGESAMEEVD
Chain of Induced myeloid leukemia cell differentiation protein Mcl-1 (Q07820 whole entry): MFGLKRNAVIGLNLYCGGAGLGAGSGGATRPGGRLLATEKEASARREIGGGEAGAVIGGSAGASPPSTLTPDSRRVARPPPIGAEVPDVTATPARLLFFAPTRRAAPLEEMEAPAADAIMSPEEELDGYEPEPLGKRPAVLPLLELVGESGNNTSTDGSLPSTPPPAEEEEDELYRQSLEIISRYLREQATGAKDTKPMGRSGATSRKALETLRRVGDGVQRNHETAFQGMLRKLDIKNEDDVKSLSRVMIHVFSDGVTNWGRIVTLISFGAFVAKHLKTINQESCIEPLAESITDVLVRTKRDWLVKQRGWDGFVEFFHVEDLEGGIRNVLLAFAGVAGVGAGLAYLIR

O=C(CN(Cc1cccs1)C(=O)c1cccnc1)NC1CCCCCC1
EC50 [1]: > 20 µM (inactive)

COc1cc2c(cc1OC)C1(CCCC1)CNC2c1cccc([N+](=O)[O-])c1 (stereo unspecified)
IC50 [2]: > 32 µM | IC50 [3]: 5.26 µM (active) | EC50 (Beta-galactosidase): 8.91 µM (active)

CCCn1c(/C=C/c2ccccc2)nc2ccccc21
AC50 (Cytochrome P450 2C9): inconclusive | IC50 [4]: > 100 µM (inactive)

CCN(CC)S(=O)(=O)c1ccc(Cl)c(NC(=O)COC(=O)C2CCCCC2)c1
EC50 (Integrin alpha-L): 0.026 µM (active) | EC50 (T-cell): 0.246 µM (active)

O=S(=O)(c1cc(O)ccc1O)c1cccc2c(S(=O)(=O)c3cc(O)ccc3O)cccc12
IC50 [5]: 3.81 µM (active) | IC50 [6]: 8.31 µM (active) | EC50 [7]: 15 µM (active) | IC50 [8]: 38.9 µM (active) | IC50 [9]: > 66.6 µM (inactive) | IC50 [10]: 5.39 µM (active) | IC50 [11]: 12.8 µM (active) | IC50 (Bcl-2-like protein 1): > 109 µM (not active)

CCn1c(O)c(N=NC(=O)c2cccc(S(=O)(=O)N3CCCCC3)c2)c2ccccc21
EC50 [12]: 2.37 µM (active)

O=c1c2ccc(Cl)cc2nc(-c2cccc(C(F)(F)F)c2)n1O
EC50 [13]: 6.6 µM (active) | EC50 [14]: > 180 µM (inactive) | CC50 [15]: 5.29 µM (active) | AC50 (Cytochrome P450 3A4): 28.2 µM (inconclusive) | EC50 [16]: 9.65 µM (active) | CC50 [17]: 2.96 µM (active) | EC50 [18]: > 195 µM (not active) | EC50 [19]: 10.4 µM (active) | IC50 [20]: 11 µM (active) | CC50 [21]: 11.9 µM (active) | EC50 [22]: 0.605 µM (active) | EC50 [23]: > 150 µM (inactive) | IC50 (cells): 6.27 µM (active) | EC50 [24]: 15.6 µM (active)

COc1ccc([N+](=O)[O-])cc1NC(=O)C(C)OC(=O)c1ccc(NC(N)=O)cc1 (stereo unspecified)
IC50 [25]: > 100 µM (inactive) | IC50 [26]: > 100 µM (inactive)

COc1ccccc1-n1c(S)nnc1-c1ccccc1
IC50 [27]: 4.11 µM (active) | IC50 [28]: > 100 µM (inactive)

O=C(Nc1ccc2nc(-c3ccco3)c(-c3ccco3)nc2c1)NC1CCCCC1
IC50 [29]: > 50 µM (inactive)
